According to paper PMC11776921 (Journal of chemical theory and computation, 2024):

Biological target: GSK-3β (Homo sapiens, UniProt P49841)
Assay: GSK-3 kinase Z'LYTE assay
Type: biochemical
Conditions: COB-136 versus COB-187; nitrogen in the pyridine ring replaced by carbon

GSK-3β, sequence (P49841 whole entry): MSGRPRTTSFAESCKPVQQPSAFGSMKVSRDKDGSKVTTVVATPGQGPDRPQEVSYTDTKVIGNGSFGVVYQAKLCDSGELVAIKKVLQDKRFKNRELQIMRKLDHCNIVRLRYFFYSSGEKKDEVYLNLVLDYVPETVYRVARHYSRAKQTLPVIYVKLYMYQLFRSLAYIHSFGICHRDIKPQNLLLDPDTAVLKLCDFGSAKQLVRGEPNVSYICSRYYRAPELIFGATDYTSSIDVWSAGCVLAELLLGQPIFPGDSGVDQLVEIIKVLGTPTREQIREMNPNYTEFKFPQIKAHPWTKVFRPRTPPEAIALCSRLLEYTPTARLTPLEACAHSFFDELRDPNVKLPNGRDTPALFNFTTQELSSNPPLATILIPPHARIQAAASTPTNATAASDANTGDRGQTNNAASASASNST

OC1(c2ccccc2)CSC(=S)N1Cc1ccccc1 (stereo not shown) [COB-136]
inhibitory activity (in words): dramatically impairs the inhibitory activity
